A value given as a limit tells only on which side of the number the result lay.

Data set [1] is described as follows: Intrinsic clearance in human microsomes assessed per mg protein. The format is ADME, Microsome. As to conditions: read-out: CLH.
Data set [2] can be described thus: Lipophilicity, log D of the compound at pH 7.4 by shake flask method. The note with it: buffer. The format is physicochemical.
A short description of data set [3]: Apparent permeability from apical to basolateral side in human Caco2 cells. Type of data set: ADME, cell-based. The note with it: Caco-2.

Usually logD stands for the decadic logarithm of the distribution of all forms, ionised or not, between an organic phase and buffer at a given pH. Higher therefore signals higher lipophilicity. Take `CN(C)[C@H]1CC[C@H](Nc2ncnc3cc[nH]c23)CC1`: in data set [1], the microsomal CLint was less than 3 µL/min/mg. For the same compound, the pH-dependent lipophilicity (logD) in data set [2] was -0.3.
Broadly, the Papp A→B is how fast a substance crosses the layer from the apical side. Turning to `Cc1ccn2ncnc(N[C@H]3CC[C@H](N(C)C)CC3)c12`, the apical-to-basolateral permeability (Papp A→B) in data set [3] was 36 ×10⁻⁶ cm/s. The compound further gave a logD in data set [2] of 0.2.
Compound `CN(C)[C@H]1CC[C@H](Nc2ncnc3ccsc23)CC1` came in with a logD in data set [2] of -0.2.
`Cn1ccc2ncnc(N[C@H]3CC[C@H](N(C)C)CC3)c21` had a logD in data set [2] of -0.8.
Still for that read-out and setting: under `CN(C)[C@H]1CC[C@H](Nc2ncnc3ccn(C4CCOCC4)c23)CC1` stands -0.6.
As for `CN(C)[C@H]1CC[C@H](Nc2ncnn3cccc23)CC1`, in data set [1], the microsomal CLint was less than 3 µL/min/mg. In data set [2], this compound yielded a logD of 0.
For `CN(C)[C@H]1CC[C@H](Nc2ncnc3cscc23)CC1`, in that order: 39 µL/min/mg and 0.3.
`CN(C)[C@H]1CC[C@H](Nc2ncnc3ccoc23)CC1` yielded a logD in data set [2] of -0.7.

The record behind these values is ChEMBL document CHEMBL4265877, “Optimization of permeability in a series of pyrrolotriazine inhibitors of IRAK4” (Bioorg Med Chem, 2018).
